Results on 7 compounds are retold here after patent publication US8361988B2, “Nucleoside and nucleotide analogues with quaternary carbon centers and methods of use” (Institut de Recherches Cliniques de Montreal, priority 2007, dated 2013).

SMILES strings stand for the structures.

Data set [1] deals with Thermotoga maritima thymidine kinase (Thermotoga maritima, UniProt Q9WYN2). Description: Phosphorylation assay (spectrophotometric coupled-enzyme), T. maritima TK. It is filed as biochemical. The conditions noted are these: substrate at 100 μM, 37° C., 1 mM ATP, triplicate. The procedure: Compounds of the invention were also tested in a phosphorylation assay using three deoxynucleoside kinases. The kinases include human dCK, which is responsible for the activation of numerous nucleoside analog prodrugs; Drosophila melanogaster dNK, which is the fastest known kinases with the broadest substrate specificity profile; and Thermotoga maritima thymidine kinase, which is a good surrogate for human thymidine kinase 1, a member of the distinct type II kinase subfamily. The compounds were at substrate concentration of 100 μM.
Thermotoga maritima thymidine kinase, sequence (Q9WYN2 whole entry): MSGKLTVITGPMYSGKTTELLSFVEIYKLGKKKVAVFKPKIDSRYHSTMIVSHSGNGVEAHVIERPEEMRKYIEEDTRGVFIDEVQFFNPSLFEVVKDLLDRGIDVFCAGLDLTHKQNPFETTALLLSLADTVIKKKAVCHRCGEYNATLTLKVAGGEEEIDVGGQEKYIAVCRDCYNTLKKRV
Kinetic assay. Substrate phosphorylation was determined using a spectrophotometric coupled-enzyme assay (Munch-Petersen et al. (2000) J. Biol. Chem. vol. 275p. 66′73-66′79; Schelling et al. (2001) Anal. Biochem vol. 295 p. 82-8′7). Briefly, the individual nucleosides at 100 μM were prepared in reaction buffer containing 50 mM Tris-HCl (pH 7.5), 0.1 M KCl, 5 mM MgCl2, 1 mM DTT, 1 mM ATP, 0.21 mM phosphoenolpyruvate, 0.18 mM NADH, and 2 units/ml pyruvate kinase and 2 units/ml lactate dehydrogenase (Roche Biochemicals, Indianapolis, Ind.). Assays were performed at 37° C. by measuring the absorbance change at 340 nm. The enzyme amount was adjusted to limit NADH turnover to 10% over the time of the experiment. All experiments were performed in triplicate.

Data set [2] can be described thus: MTT cell proliferation assay, PFSK-1. It counts as cell-based. The conditions noted are these: human, PFSK-1 cells, concentration causing 50% cell death of initial cell count over 24 hours, 1% DMSO. The procedure: (§1) The antitumor activities of the compounds of the invention were evaluated by a cellular proliferation assay. […] The cleavage reaction form a purple formazan crystals which is largely impermeable to cell membranes resulting in its accumulation within healthy cells. Solubilisation of the cells by addition of a detergent liberates and solubilizes the formazan crystals. The number of surviving cells is directly proportional to the level of the formazan product created. The color can then be quantified spectrophotometrically. The production of purple formazan in cells treated with a compound is measured relative to the production in control cells, and dose-response curves can be generated. This assay measures the cell proliferation rate and conversely, when metabolic events lead to apoptosis or necrosis, the reduction in cell viability, thus also allowing the evaluation of the cytotoxicity of the analogues synthesized in the laboratory.
(§2) For Tables 3 and 4, the assays were performed with 1% DMSO. The abbreviation “n.d.” means “not determined.” The values EC50, CC50, and SI have the following definitions.
(§3) Cell growth equals total cell count without any inhibitor after 72 hours minus initial cell count.
(§4) SI: Selectivity Index is the ratio CC50/EC50.
A general note: Tetrazolium assays rely on reduction of a dye to a coloured formazan, in cell work by metabolically active cells.

The subject of a further data set is PFSK-1. Description: MTT cell proliferation assay, PFSK-1. It counts as cell-based. The conditions noted are these: Homo sapiens, PFSK-1, 72 h, concentration reducing cell growth by 50% after 72 hours, 1% DMSO. The procedure: as §1, §2, §3, §4
The nature of data set [3]: in vitro. The conditions noted are these: human, NCI H2052 cells.
Data set [4] is described as follows: in vitro. To be noted: human, NCI H1395 cells.
A short description of data set [5]: in vitro. The conditions noted are these: human, MOLT-4 cells.
Data set [6] is described as follows: MTT cell proliferation assay, ZR-75-1. It counts as cell-based. To be noted: human, ZR-75-1 cells, concentration causing 50% cell death of initial cell count over 24 hours, 1% DMSO. Here is the method:
(§5) The antitumor activities of the compounds of the invention were evaluated by a cellular proliferation assay. The MTT [3-(4,5-dimethylthiazol-2-yl)-2,5-diphenyltetrazolium bromide] cell proliferation assay, first described by Mosmann (Mosmann T., “Rapid colorimetric assay for cellular growth and survival: application to proliferation and cytotoxicity assays,” J. Immunol. Methods 1983 Dec. 16; 65(1-2):55-63, and incorporated by reference in its entirety) is based on the ability of active mitochondrial reductase enzymes from viable cells to cleave the tetrazolium rings of the pale yellow MTT. The cleavage reaction form a purple formazan crystals which is largely impermeable to cell membranes resulting in its accumulation within healthy cells. Solubilisation of the cells by addition of a detergent liberates and solubilizes the formazan crystals. The number of surviving cells is directly proportional to the level of the formazan product created. The color can then be quantified spectrophotometrically. The production of purple formazan in cells treated with a compound is measured relative to the production in control cells, and dose-response curves can be generated. This assay measures the cell proliferation rate and conversely, when metabolic events lead to apoptosis or necrosis, the reduction in cell viability, thus also allowing the evaluation of the cytotoxicity of the analogues synthesized in the laboratory.
as §2
(§6) Cell growth equals total cell count without any inhibitor after 72 hours minus initial cell count. Total cell counts after 72 hrs of growth range from 230 to 346% of initial cell counts depending on the cell line.
(§7) Total cell counts after 24 hrs of growth range from 103 to 109% of initial cell counts depending on the cell line.
as §4

The subject of the next data set is ZR-75-1. Description: MTT cell proliferation assay, ZR-75-1. It is filed as cell-based. The conditions noted are these: Homo sapiens, ZR-75-1, 72 h, concentration reducing cell growth by 50% after 72 hours, 1% DMSO. The procedure:
as §5, §2, §6, §7, §4

The target of data set [7] is T1, Drosophila melanogaster dNK (Drosophila melanogaster, UniProt Q9XZT6).
T1 sequence (Q9XZT6 1-250): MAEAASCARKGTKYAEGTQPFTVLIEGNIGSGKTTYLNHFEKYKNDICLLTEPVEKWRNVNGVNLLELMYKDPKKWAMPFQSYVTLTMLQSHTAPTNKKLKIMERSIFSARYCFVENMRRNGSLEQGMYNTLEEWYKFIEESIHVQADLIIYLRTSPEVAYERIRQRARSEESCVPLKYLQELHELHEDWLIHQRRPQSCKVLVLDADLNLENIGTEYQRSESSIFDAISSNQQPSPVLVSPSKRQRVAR
Put plainly: Phosphorylation assay (spectrophotometric coupled-enzyme), D. melanogaster dNK. It counts as biochemical. The conditions noted are these: substrate at 100 μM, 37° C., 1 mM ATP, triplicate. The procedure:
Compounds of the invention were also tested in a phosphorylation assay using three deoxynucleoside kinases. […] The compounds were at substrate concentration of 100 μM.
Kinetic assay. […] Briefly, the individual nucleosides at 100 μM were prepared in reaction buffer containing 50 mM Tris-HCl (pH 7.5), 0.1 M KCl, 5 mM MgCl2, 1 mM DTT, 1 mM ATP, 0.21 mM phosphoenolpyruvate, 0.18 mM NADH, and 2 units/ml pyruvate kinase and 2 units/ml lactate dehydrogenase (Roche Biochemicals, Indianapolis, Ind.). Assays were performed at 37° C. by measuring the absorbance change at 340 nm. The enzyme amount was adjusted to limit NADH turnover to 10% over the time of the experiment. All experiments were performed in triplicate.

Data set [8] can be described thus: MTT cell proliferation assay, Panc 02.03. It counts as cell-based. The conditions noted are these: human, Panc 02.03 cells, concentration causing 50% cell death of initial cell count over 24 hours, 1% DMSO. The procedure: as §1, §2, §3, §4
In a further data set the test system is Panc 02.03. Put plainly: MTT cell proliferation assay, Panc 02.03. It counts as cell-based. The conditions noted are these: Homo sapiens, concentration reducing cell growth by 50% after 72 hours, 1% DMSO. The procedure: as §1, §2, §3, §4

Take `CCOC(=O)[C@@H]1O[C@H](n2ccc(=O)[nH]c2=O)CC1(C)C(=O)OCC` (stereo partly drawn) [LCB-1025, (2R,5S)-diethyl 5-(2,4-dioxo-3,4-dihydropyrimidin-1(2H)-yl)-3-methyltetrahydrofuran-2,3-dicarboxylate]: the “T. maritima TK substrate phosphorylation” value in [1] is listed as <1 10^−3 μmol/min mg. Besides, the CC50 at 24 h (in [2]; in “in vitro [3]”; in “in vitro [4]”; in “in vitro [5]”; in [6]) was above 460 µM throughout. In addition, the EC50 in the data set with PFSK-1 and with ZR-75-1 was above 460 µM in each case. For the same compound, in data set [7], the “D. melanogaster dNK substrate phosphorylation” value is listed as <0.1 10^6 μmol/min mg.
As for `CCOC(=O)[C@@H]1O[C@H](n2cc(C)c(=O)[nH]c2=O)CC1(C)C(=O)OCC` (stereo partly drawn) [LCB-1019, (2R,5S)-diethyl 3-methyl-5-(5-methyl-2,4-dioxo-3,4-dihydropyrimidin-1(2H)-yl)tetrahydrofuran-2,3-dicarboxylate], the “T. maritima TK substrate phosphorylation” value in [1] is 6.1 10^−3 μmol/min mg. In addition, the CC50 at 24 h (in data set [2]; in the data set “in vitro [3]”; in the data set “in vitro [4]”; in the data set “in vitro [5]”; in data set [6]) was above 460 µM throughout. Besides, the EC50 in the data set with PFSK-1 and in the data set with ZR-75-1 was above 460 µM each time. Further, the “D. melanogaster dNK substrate phosphorylation” value in data set [7] is listed as <0.1 10^6 μmol/min mg.
For the compound `COC(=O)C1(C)CC(n2cc(C)c(=O)[nH]c2=O)OC1CO` (racemic) [LCB-1010, (±) methyl 2-(hydroxymethyl)-3-methyl-5-(5-methyl-2,4-dioxo-3,4-dihydropyrimidin-1(2H)-yl)tetrahydrofuran-3-carboxylate], the “T. maritima TK substrate phosphorylation” value in [1] (listed as LCB-1010-1) is on record as 6 10^−3 μmol/min mg. Besides, the 50% cytotoxic concentration (CC50) at 24 h (in [2]; in the data set “in vitro [3]”; in [8]; in “in vitro [4]”; in data set [6]) was above 500 µM in each case. Further, the concentration giving a half-maximal response (EC50) (as a rule, the concentration giving half of the maximal effect) was above 500 µM in the data set with PFSK-1, above 500 µM in the data set with Panc 02.03 and 180 µM in the data set with ZR-75-1. Moreover, in data set [7] (listed as LCB-1010-1), the “D. melanogaster dNK substrate phosphorylation” value is listed as 2.84 10^6 μmol/min mg.
For `COC(=O)C1(C)C[C@H](n2cc(C)c(=O)[nH]c2=O)O[C@@H]1CO` (mixture of isomers) [LCB-1009, (±) methyl 2-(hydroxymethyl)-3-methyl-5-(5-methyl-2,4-dioxo-3,4-dihydropyrimidin-1(2H)-yl)tetrahydrofuran-3-carboxylate], the “T. maritima TK substrate phosphorylation” value in data set [1] (listed as LCB-1009-1) is 11.9 10^−3 μmol/min mg. For the same compound, the CC50 at 24 h (in data set [2]; in “in vitro [3]”; in data set [8]; in the data set “in vitro [4]”; in [6]) was above 500 µM throughout. The EC50 in the data set on PFSK-1, in the data set on Panc 02.03 and in the data set on ZR-75-1 was above 500 µM throughout. Moreover, in data set [7] (listed as LCB-1009-1), the “D. melanogaster dNK substrate phosphorylation” value is 3.49 10^6 μmol/min mg.
Regarding `CCOC(=O)[C@@H]1O[C@H](n2cc(F)c(=O)[nH]c2=O)CC1(C)C(=O)OCC` (stereo in doubt) [LCB-1024, (2R,5S)-diethyl5-(5-fluoro-2,4-dioxo-3,4-dihydropyrimidin-1(2H)-yl)-3-methyltetrahydrofuran-2,3-dicarboxylate], the “T. maritima TK substrate phosphorylation” value in [1] is listed as 4.2 10^−3 μmol/min mg. The CC50 at 24 h (in data set [2]; in “in vitro [3]”; in “in vitro [4]”; in “in vitro [5]”; in data set [6]) was above 460 µM throughout. Also, the EC50 in the data set on PFSK-1 is 190 µM; in the data set on ZR-75-1 it was above 460 µM. Further, the “D. melanogaster dNK substrate phosphorylation” value in [7] is <0.1 10^6 μmol/min mg.
Regarding `Cc1cc(=O)[nH]c(=O)n1[C@H]1CC(C)(CO)[C@@H](CO)O1` (mixture of isomers) [LCB-1021, 1-(4,5-Bis-hydroxymethyl-4-methyl-tetrahydro-furan-2-yl)-6-methyl-1H-pyrimidine-2,4-dione], in data set [1], the “T. maritima TK substrate phosphorylation” value is on record as 2.2 10^−3 μmol/min mg. The CC50 at 24 h (in [2]; in the data set “in vitro [3]”; in “in vitro [4]”; in the data set “in vitro [5]”; in [6]) was above 500 µM throughout. In addition, the EC50 in the data set on PFSK-1 and in the data set on ZR-75-1 was above 500 µM in each case. In addition, the “D. melanogaster dNK substrate phosphorylation” value in data set [7] is on record as <0.1 10^6 μmol/min mg.
`Cc1cc(=O)[nH]c(=O)n1[C@H]1CC2(C)C(=O)OC[C@H]2O1` (single isomer, unassigned) [LCB-1020, 6-Methyl-1-(3a-methyl-4-oxo-hexahydro-furo[3,4-b]furan-2-yl)-1H-pyrimidine-2,4-dione]: the “T. maritima TK substrate phosphorylation” value in [1] is reported as <1 10^−3 μmol/min mg. Also, the CC50 at 24 h (in [2]; in “in vitro [3]”; in the data set “in vitro [4]”; in “in vitro [5]”; in data set [6]) was above 500 µM in each case. Moreover, the EC50 with PFSK-1 and with ZR-75-1 was above 500 µM each time. The “D. melanogaster dNK substrate phosphorylation” value in data set [7] was <0.1 10^6 μmol/min mg.
